Marks after values point to notes of the source that are not given here.
What was measured:
[1] = Characterization and 40° C. closed-vial stability of spray dried solid dispersions (XRPD, mDSC, TGA); assay type: physicochemical; conditions: t = 0, spray dried
Protocol: X-ray power diffraction (XRPD): XRPD patterns were collected on a Bruker AXS D2 diffractometer using Cu Kα radiation (30 kV, 10 mA), […], using a LynxEye detector from 5-42 °2θ.
The details of the data collection are: • Angular range: 5 to 42 °2θ • Step size: 0.024° 2θ • Collection time: 0.1 seconds per step.
Samples were run under ambient conditions and prepared as flat plate specimens using powder without grinding. Approximately 1-2 mg of the sample was lightly pressed on a silicon wafer to obtain a flat surface.
Modulated differential scanning calorimetry (mDSC): TOPEM® is a temperature modulated DSC method which differs from conventional DSC in allowing the total heat flow to be separated into reversing and non-reversing heat flow components. Such techniques help distinguish between processes or transitions that overlap or lie very close to one another. The glass transition temperature (Tg) was determined from the reversible heatflow component.
TOPEM® DSC data were collected on a Mettler DSC 3+ equipped with a 34 position auto-sampler. The instrument was calibrated for energy and temperature using certified indium. Typically, 3-5 mg of each sample, in a pin-holed aluminium pan, was heated at 2 K·min^−1 from 30° C. to 220° C. with a pulse height of 0.64 K and a pulse width 15-30 sec. A nitrogen purge at 50 mL·min^−1 was maintained over the sample. […]

[2] = cited from earlier work
[3] = XRPD characterization of freeze-dried solid dispersions, physical mixtures and starting material; assay type: physicochemical; conditions: as prepared; solid form of psilocybin (PY) in freeze-dried dispersion, physical mixture or starting material
Protocol: The samples were prepared in silicon low background holders using light manual pressure to keep the sample surface flat and level with the reference surface of the sample holder. The single crystal Si low background holder has a circular recess (10 mm diameter and about 0.2 mm depth) that holds the sample.
The Rigaku Smart-Lab diffraction system used was configured for Bragg-Brentano reflection geometry using a line source X-ray beam. The Bragg-Brentano geometry was controlled by passive divergence and receiving slits with the sample itself acting as the focusing component for the optics. The figures were created using PlotMon V2.1.1.0.
High-resolution XRPD analysis was performed using Rigaku Smart-Lab diffraction system configured for Debye-Scherrer transmission geometry. The Debye-Scherrer convergent beam geometry utilizes a curved x-ray mirror to focus the incident beam through the sample and onto the detector plane. The axial divergence of the X-ray beam was controlled by 5.0° Soller slits in both the incident and diffracted beam paths.
Freeze-dried solid dispersions of Examples 1-5, and corresponding Reference Examples, were characterized using X-ray powder diffraction (XRPD).

## CN(C)CCc1c[nH]c2cccc(OP(=O)(O)O)c12 [Psilocybin (PY), 3-(2-(dimethylamino)ethyl)-1H-indol-4-yl dihydrogen phosphate]
[1]
  XRPD: Amorphous
[1]; mDSC
  Tg: 161 °C

## CN(C)CCc1c[nH]c2cccc(OP(=O)(O)O)c12 [amorphous psilocybin]
[2]; reported by Greenan et al.
  Tg (midpoint): 163 °C
[2]; variety of stress conditions, Greenan et al.
  physical stability of the amorphous form without polymer: known to crystallize

## CN(C)CCc1c[nH]c2cccc(OP(=O)(O)O)c12 [Crystalline PY starting material, 3-(2-(dimethylamino)ethyl)-1H-indol-4-yl dihydrogen phosphate]
[3]
  XRPD Results: crystalline PY (methanol solvate)^a

— patent US20250360148A1, “SOLID DISPERSIONS OF PSILOCYBIN” (Cybin IRL Limited, priority 2022, published 2025)
